No end group written: not given here.
Experiments:
P. aeruginosa ATCC 27853 = assay type: cell-based, Pseudomonas aeruginosa
Description: (§1) Antimicrobial assays. Antimicrobial assays were performed using the CFU assay as previously described (Rieg, S. et al. 2005 J. Immunol. 174:8003-8010, Schittek, B. et al. 2001 Nat. Immunol. 2:1133-1137). The antibacterial activity of DCD-derived peptides and LL-37 was tested against the following bacterial strains: Escherichia coli ATCC 25922, methicillin-susceptible Staphylococcus aureus ATCC 25923 (MSSA), methicillin-resistant Staphylococcus aureus (MRSA; clinical isolate), Staphylococcus epidermidis ATCC 12228, and Pseudomonas aeruginosa ATCC 27853. E. coli ML-35p was generously provided by Robert Lehrer (Department of Medicine, Center for Health Sciences, Los Angeles, Calif.) and cultivated on Luria-Bertani (LB) plates containing 50 μg of ampicillin/ml. This strain constitutively expresses cytoplasmic […] but lacks lactose permease (Lehrer, R. I. et al. 1988 J. Immunol. Methods 108:153-158). The bacterial membrane mutants Staphylococcus aureus mprF and dltA and Staphylococcus epidermidis Δica and the corresponding wild-type strains S. aureus 113 and S. epidermidis 1457 were previously described (Gotz, F. 2002 Mol. Microbiol. 43:1367-1378, Peschel, A. et al. 2001 J. Exp. Med. 193:1067-1076). Bacterial cultures were grown to mid-exponential growth phase and washed three times with 10 mM sodium phosphate buffer-10 mM NaCl (pH 7.0). The bacterial concentration was estimated photometrically at 600 nm. Absorbance of 1.0 corresponded to 8.56×10^8/ml for E. coli; 1×10^8/ml for E. coli ML-35p; 1.97×10^8/ml for S. aureus, MRSA, and the wild-type and membrane mutants of S. aureus and S. epidermidis; and 5.07×10^8/ml for P. aeruginosa.
(§2) After dilution to a concentration of 10^6 CFU/ml, 10-μl portions of the dilutions were incubated at 37° C. for 2 to 4 h with the respective peptide diluted in water in a total volume of 30 μl in 10 mM sodium phosphate buffer-10 mM NaCl (pH 7.0). After incubation, the cells were diluted 1:100 in 10 mM sodium phosphate buffer-10 mM NaCl (pH 7.0), and 90 μl of the diluted bacterial suspension was plated in triplicates on blood agar. Bacterial colonies were counted after incubation for 18 to 24 h at 37° C. The antimicrobial activity was calculated by using [(cell survival after peptide incubation)/(cell survival in buffer without peptide)×100]. The LC90 describes the lethal concentration of the current synthetic peptide in μg/ml or μM that leads to a 90% reduction of CFU compared to the buffer control.
(§3) ^aThe 90% inhibitory concentration (IC90) is the concentration of peptide in μg/ml (or in μM [in parentheses]) able to kill 90% of the microorganisms in 10 mM NaP-10 mM NaCl in a CFU assay compared to the control incubated only in buffer without peptide. ND, not determined.

E. coli ML-35p = assay type: cell-based, Escherichia coli; conditions: 10 mM NaP-10 mM NaCl, CFU assay
Description: as §1, §2, §3

E. coli ATCC 25922 = assay type: cell-based, Escherichia coli
Description: as §1, §2, §3

[1] = tested on: S. aureus (MSSA) ATCC 25923; assay type: cell-based, Staphylococcus aureus
Description: as §1, §2, §3

S. aureus dltA = assay type: cell-based, Staphylococcus aureus; conditions: 10 mM NaP-10 mM NaCl, CFU assay
Description: as §1, §2, §3

S. aureus mprF = assay type: cell-based, Staphylococcus aureus; conditions: 10 mM NaP-10 mM NaCl, CFU assay
Description: as §1, §2, §3

S. epidermidis Δica = assay type: cell-based, Staphylococcus epidermidis; conditions: 10 mM NaP-10 mM NaCl, CFU assay
Description: as §1, §2, §3

[2] = tested on: S. epidermidis ATCC 12228; assay type: cell-based, Staphylococcus epidermidis
Description: as §1, §2, §3

S. aureus (ATCC 25923) = assay: TEM and IEM of peptide-treated bacteria; assay type: cell-based, Staphylococcus aureus
Description: FIG. 10. Morphology of peptide-treated S. aureus. […] As a negative control cells were incubated in buffer without peptide. For the immune-EM, bacteria were incubated with a polyclonal antiserum to DCD-1, and the reactivity was detected by immunogold labeling. Seen is the binding of DCD to the bacterial surface.
TEM and IEM. Liquid cultures of S. aureus (ATCC 25923) cells grown up to mid-logarithmic phase were washed twice in 10 mM sodium phosphate buffer (pH 7.4). […] In parallel, antimicrobial assays with both peptides were performed which confirmed the antibacterial activity of both peptides. For immune electron microscopy (IEM), cells were fixed in PLP and centrifuged, and the resulting bacterial pellet was embedded in 3.5% agarose at 37° C. and cooled on ice. Small parts of agarose blocks were embedded in Lowicryl (Polysciences, Eppelheim, Germany). Ultrathin sections (50 nm) were mounted on Formvar-coated nickel grids and incubated with rabbit anti-DCD, followed by 10-nm gold-conjugated goat anti-rabbit immunoglobulin G (Auroprobe EM; Amersham, Freiburg, Germany). In control samples the primary antibody was omitted. Samples were examined by using a Zeiss 109 transmission electron microscope (Zeiss, Oberkochen, Germany). For transmission EM (TEM) bacterial pellets were fixed in Karnovsky's fixative, postfixed in 1% osmium tetroxide, and embedded in Epon.

[3] = tested on: Escherichia coli, Staphylococcus aureus, Enterococcus faecalis and Candida albicans; assay: CFU test (colony-forming units), Example 4; assay type: cell-based; conditions: sodium phosphate buffer, 37° C., 3 h, 4 h or overnight
Description: The antimicrobial effect of said peptides was carried out by a CFU test (test for colony-forming units) as described for the defensins by Valore et al., “Human Beta-Defensin-1: An Antimicrobial Peptide of Urogenital Tissues”, J Clin Invest 101, 1633-1642 (1998).
The test of the novel peptides was carried out with Escherichia coli, Staphylococcus aureus, Enterococcus faecalis and Candida albicans. E. coli was incubated in LB medium, E. faecalis and S. aureus in Columbia medium (Difko, BD Heidelberg) and C. albicans in casein hydrolysate medium (Merck, Darmstadt). The amounts of bacteria and yeasts were determined by photometry. The bacterial strains were incubated to an optical density of […] at 600 nm and the yeast was incubated to an optical density of 0.4-0.6 at 450 nm. The amount of the organisms was determined by plating various dilutions as follows: an OD of 1 at 600 nm is equivalent to 8.2×10^9/ml for E. coli, 1.9×10^10/ml for S. aureus and 9.0×10^9/ml for E. faecalis, and an OD of 1 at […] is equivalent to 1.4×10^8/ml for C. albicans.
The cells were washed twice with 10 mM sodium phosphate buffer (pH 7.4) and diluted to 2-3×10^7 cells/ml (E. coli, E. faecalis), 5.7×10^7 cells/ml (S. aureus) or 5×10^5 cells/ml (C. albicans) in phosphate buffer.
The cells were incubated with various amounts of the peptides in 200 μl of sodium phosphate buffer at 37° C. for 3 h, 4 h or overnight (21-24 h). The cells were diluted 1:10 to 1:100 for the bacteria and 1:500 to 1:5000 for the yeast, and 50 μl, 100 μl and 200 μl were plated on appropriate agar plates. The plates were incubated at 37° C. overnight, and the number of colonies was counted. The antimicrobial effect of the peptides has been stated as percentage of killed cells: [1−(cell survival after incubation with the peptide)/(cell survival after control incubation)]×100.

With “LEKGLDGAKKAVGGLGKLGKDAVEDLESVGKGAVHDVKDVLDSVL [LEK-45]” the IC90 (P. aeruginosa ATCC 27853) was >200 (>44) μg/ml, the IC90 (E. coli ML-35p) was > 200 µg/mL and the IC90 (E. coli ATCC 25922) was >200 (>44) μg/ml. For the same molecule, the IC90 [1] was >200 (>44) μg/ml, the IC90 (S. aureus dltA) was > 200 µg/mL and the IC90 (S. aureus mprF) was > 200 µg/mL. The IC90 (S. epidermidis Δica) was > 200 µg/mL and the IC90 [2] was 200 (44) μg/ml.

With SSLLEKGLDGAKKAVGGLGKLGK [SSL-23] the IC90 (P. aeruginosa ATCC 27853) was >200 µg/mL, the IC90 (E. coli ATCC 25922) was 10 µg/mL and the IC90 [1] was 10 µg/mL. For the same molecule, the IC90 (S. aureus dltA) was 10 µg/mL, the IC90 (S. aureus mprF) was 50 µg/mL and the IC90 (S. epidermidis Δica) was >200 µg/mL. For the same molecule, the IC90 [2] was 8 µg/mL.

Molecule SSLLEKGLDGAKKAVGGLGKLGKDA [SSL-25] has an IC90 (P. aeruginosa ATCC 27853) of 200 µg/mL, an IC90 (E. coli ML-35p) of 9 µg/mL and an IC90 (E. coli ATCC 25922) of 10 µg/mL. For the same molecule, the IC90 [1] was 48 µg/mL, the IC90 (S. aureus dltA) was >200 µg/mL and the IC90 (S. aureus mprF) was >200 µg/mL. The IC90 [2] was >200 µg/mL.

SSLLEKGLDGAKKAVGGLGKLGKDAVEDL [SSL-29] was tested, and the IC90 (P. aeruginosa ATCC 27853) was >200 (>69) μg/ml, the IC90 (E. coli ML-35p) was > 200 µg/mL and the IC90 (E. coli ATCC 25922) was >200 (>69) μg/ml. The IC90 [1] was >200 (>69) μg/ml, the IC90 (S. aureus mprF) was 180 µg/mL and the IC90 [2] was 200 (69) μg/ml.

In the case of “SSLLEKGLDGAKKAVGGLGKLGKDAVEDLESVGKGAVHDVKDVLDSV (synthetic fragment of DCD protein) [DCD-1]”, the “morphological changes of S. aureus (transmission EM)” value (S. aureus (ATCC 25923); 100 μg/ml for 4 h) is reported as “no signs of cell wall damage. Instead, we observed cellular disintegration”, the “localisation of peptide on bacteria (immune-EM)” value (S. aureus (ATCC 25923); antiserum to DCD-1, immunogold labeling) is reported as “able to bind to the cell surface but is not found in the bacterial cytoplasm” and the “antimicrobial effect (percentage of killed cells)” value [3] is reported as “quantity-dependent antimicrobial effect”.

For “SSLLEKGLDGAKKAVGGLGKLGKDAVEDLESVGKGAVHDVKDVLDSVL [DCD-1L]”, the IC90 (P. aeruginosa ATCC 27853) was >200 µg/mL, the IC90 (E. coli ML-35p) was 30 µg/mL and the IC90 (E. coli ATCC 25922) was 45 µg/mL. For the same molecule, the IC90 [1] was 45 µg/mL, the IC90 (S. aureus dltA) was 6 µg/mL and the IC90 (S. aureus mprF) was 50 µg/mL. The IC90 (S. epidermidis Δica) was >200 µg/mL and the IC90 [2] was 10 µg/mL.

“YDPEAASAPGSGNPCHEASAAQKENAGEDP [Y-P30, survival promoting peptide Y-P30 with one amino acid replaced, reference compound]” was tested, and the “antimicrobial effect (percentage of killed cells)” value [3] was “no appreciable antimicrobial effect”.

B1: DCD protein: DCD protein comprising the sequence SEQ ID No: 1, 110 amino acid residues (protein, listed as Homo sapiens)
chain: MRFMTLLFLTALAGALVCAYDPEAASAPGSGNPCHEASAAQKENAGEDPGLARQAPKPRKQRSSLLEKGLDGAKKAVGGLGKLGKDAVEDLESVGKGAVHDVKDVLDSVL
In the case of B1, the “antimicrobial effect (percentage of killed cells)” value [3] is reported as “toxic”.

From patent US8329865B2, “Antimicrobially active peptides” (priority 2001, dated 2012)
